According to US20230338340A1, “Methods of Treating Cystic Fibrosis” (The Trustees of Dartmouth College, priority 2020, published 2023):
Non-standard residues stand in square brackets, D forms with d. Residues, ends and D or L forms follow the SMILES beside them. Tle = CC(C)(C)[C@H](N)C(=O)O

Tests used:
Format in all cases: binding
CAL PDZ = target: T1, CAL PDZ (Homo sapiens, UniProt Q9HD26); assay: CALP fluorescence polarization (FP) competition assay, HTS format with dose-response validation; design: Inhibitory activity CALP at 100 μM: unit not given here; conditions: for IC50: read-out: Inhibitory activity CALP IC50
T1 construct: Recombinant CAL PDZ was expressed and purified in E. coli as previously described; made in house; host or cells: E. coli
Procedure: (§1) CALP and/or Dab2 inhibition assays were performed in biochemical “mix-and-measure” format in order to evaluate the effects on activation and inhibition of CALP and/or Dab2 by the compounds of the disclosure. Brief assay procedure is provided below. Unless otherwise specified, all of the compounds were obtained from commercial sources.
CALP inhibitors were identified by fluorescence polarization (FP) competition assays in high-throughput screening (HTS) format. Recombinant CAL PDZ was expressed and purified in E. coli as previously described (Amacher et al., Acta Cyst. (2011) F67, 600-603), and dialyzed into FP storage buffer (25 mM Tris pH 8.5, 150 mM NaCl, 0.1 mM TCEP, and 0.02% sodium azide). A fluorescent reporter peptide, NPG32, was purchased commercially with the following sequence: F*-[…] (F* denotes a N-terminal fluorescein group coupled via an aminohexanoic acid linker). Initial single-dose HTS was performed with libraries comprising ˜52,000 compounds (FAST Lab—Novartis Institutes for BioMedical Research). First, 25 nL of 5 mM small-molecule was transferred to 1536-well Grenier plates. 3 μL of 3.708 μM CALP in FP buffer (FP storage buffer supplemented with […]) was added, and plates were incubated for 10 min. Next, 3 μL of 60 nM NPG32 (in FP buffer) was added. Final reaction volumes were 6 μL and contained 1.854 μM CALP, 30 nM NPG32, and 20.83 μM small-molecule. […] Plates were incubated for 30 minutes at room temperature and anisotropy was measured (480 nm excitation wavelength and 535 nm emission wavelength). […] Compounds were validated in triplicate using 8-point dilution series in half-log increments with two orthogonal assays: FRET and TMR-based FP assay. For the FRET assay, a cerulean-CALP fusion protein (Cer-CALP) was expressed and purified as previously described (Zhao et al., 2018). A fluorescent reporter peptide, PRC34, was purchased commercially with the following sequence: TMR*-[…] (TMR* denotes a N-terminal tetramethylrhodamine group coupled via an aminohexanoic acid linker). First, 40 nL of compound was transferred to the plates. 5 μL of 16.632 μM Cer-CALP was added, and plates were incubated for 30 min. Next, 5 μL of 16.632 μM PRC34 was added, and plates were incubated for 30 min. Final reaction volumes were 10 μL and contained 8.316 μM CALP, 8.316 μM […], and variable concentrations of small-molecule. Negative controls contained equivalent amounts of DMSO (0.4%), while positive controls contained 100 μM NPG30 (sequence: […]). Plates were incubated for 30 min, and emission at 475 nm and 575 nm was measured following excitation at 430 nm. TMR FP assays were conducted as described for the FITC-based assay with the following exceptions: TMR was used as the reporter peptide, the final CALP concentration was 11.952 μM, and the positive control used was 100 μM NPG30.

Human-Dab2-DH = target: T2, Human-Dab2-DH (Homo sapiens, UniProt P98082); assay: Dab2 FP competition assay via HTS; conditions: read-out: Inhibitory activity Dab2 IC50
T2 construct: fused on or other part: N-terminal 10xHis tag with a 3C protease site, cleaved off unless otherwise indicated
T2 sequence (P98082 33-178 limits assumed): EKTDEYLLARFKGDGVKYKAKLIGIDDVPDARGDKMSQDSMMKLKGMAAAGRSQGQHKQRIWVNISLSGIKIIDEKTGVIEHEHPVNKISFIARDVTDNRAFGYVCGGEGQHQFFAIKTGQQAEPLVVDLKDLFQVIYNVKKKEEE
Procedure: as §1
Dab-2 inhibitors were also identified by FP competition assays via HTS. Human-Dab2-DH, residues 31-191 (Uniprot: P98082), and trDab2-DH (residues 33-178) was subcloned into the pET16b vector via PCR utilizing the restriction enzyme sites of Xhol and BamHI. The construct was designed with a 3C protease cleavage site directly upstream and in-frame with the protein coding sequence. DNA was sequence verified. (0.1 mM) IPTG was used to induce protein expression in E. coli BL21(DE3)RIL cells, after reaching an O.D. of […]. […] Followed by 3C cleavage of the 10×His tag (unless otherwise indicated), and a second nickel affinity column to remove the 3C protease and excess tag. Dab2-DH was dialyzed into FP storage buffer (25 mM Tris pH 8.0, 150 mM NaCl, 0.1 mM TCEP, and 0.02% sodium azide). Fluorescent reporter peptides, TIVR*STA02 (TMR*-[…]) and TMR*STA03 (TMR*-[…]), were purchased commercially with the following sequence where TMR* denotes a N-terminal tetramethylrhodamine group coupled via an aminohexanoic acid linker. An unlabled positive control peptide STA02 ([…]) was also purchased commercially. Inhibitors of Dab2-DH were identified from a variety of sources with various protocols outlined below.
For screens conducted at the Novartis Institutes for BioMedical Research FAST Lab, single-dose HTS assays were performed with libraries comprising ˜52,000 compounds at 20 μM doses. Experiments were conducted as described for screens at the University of Pittsburgh Lab and Drug Discovery Institute, except that Dab2-DH, not trDab2-DH, was used as the protein source.
For screens conducted at the Broad Institute, compound transfers were done using a 384-well pin tool equipped with 100 nL hydrophobic surface coated pins. 100 nL of DMSO (negative control), STA02 (positive control), or library compounds were dispensed into 20 μL of protein (200 nM) and reporter (F*-STA02, 30 nM) mixture with 0.1 mg/ml mouse IgG and 0.5 mM Thesit. Final concentrations in the mixture were DMSO ([…]), STA02 (20 μM), and compounds (18 μM). Plates were incubated for 35-45 minutes before measuring polarization. Compounds were tested in duplicates on two separate plates. Positive and negative controls were included in each individual plate.
For experiments conducted at the University of Pittsburgh Lab and Drug Discovery Institute, single-dose HTS assays were performed with a library containing ˜220,000 compounds. On the day of screening, a master mix of equal parts trDab2-DH (900 nM) and TMP-STA03 (90 nM) was prepared. Compound plates containing assay ready 2 μL aliquots of a 1 mM stock solution in DMSO were thawed, reconstituted in FP buffer to a concentration of 30 μM in 3% DMSO, and five μL transferred to low volume assay plates using a Perkin Elmer MDT. Ten μL of master mix were added by a Microflo bulk liquid dispenser (Biotek, Winooski, VT) and processed as described in the general protocol above. Each plate contained 32 wells of positive (Dab2-DH+probe+DMSO) and negative (Dab2-DH+probe +10 μM STA03) controls. Plates were read at 1.5-h and 4-h on the Envision multilabel reader.

CALP = target: T3, CALP (Homo sapiens, UniProt Q9HD26); assay: Dose-dependent CALP inhibition by FP competition assay, large-volume format; conditions: one experimental replicate
T3 construct: Recombinant CAL PDZ was expressed and purified in E. coli as previously described; made in house; host or cells: E. coli
Procedure: The following compounds of Table 2 were obtained from commercial sources, and evaluated in fluorescence polarization (FP) competition assay.
Specifically, dose-dependent CALP inhibition of compounds of examples 36-41 was assessed by FP competition assays. Experiments were conducted similarly to HTS assays described above but in large-volume format. Briefly, CALP was expressed and purified as previously described (Amacher et al., 2011). A fluorescently labeled peptide, NPG32, was commercially obtained (sequence: F*-[…] where F* denotes a N-terminal fluorescein group coupled via an aminohexanoic acid linker). CALP was dialyzed into FP storage buffer (25 mM Tris pH 8.5, 150 mM NaCl, 0.1 mM TCEP, and 0.02% sodium azide). CALP was diluted into FP buffer (FP storage buffer supplemented with 0.1 mg/mL IgG and 30 μM thesit) containing 31.58 nM NPG32. The protein/reporter solution was aliquoted into 384-well plates with each well containing 19 μL of the mixture. Twelve-point titrations (2-fold serial dilutions) of the test compounds were prepared in 25% DMSO. To each well, 1 μL of compound was added. […] Plates were incubated at room temperature for 30 min before anisotropy was measured. […] Except for Examples 37-38, the reported potency for all compounds was calculated by averaging three experimental replicates.

SMILES	Inhibitory activity CALP at 100 μM (CAL PDZ)	IC50 (CAL PDZ)	IC50 (Human-Dab2-DH)	CALP binding in FP competition (CALP)	Kd (CAL PDZ; unlabeled peptide used as positive control)
O=C(O[C@@H]1Cc2c(O)cc(O)cc2O[C@@H]1c1cc(=O)c(O)c2c(O)c(O)cc([C@H]3Oc4cc(O)cc(O)c4C[C@H]3O)c2c1)c1cc(O)c(O)c(O)c1 [Example 1, (2R,3R)-5,7-dihydroxy-2-(3,4,5-trihydroxy-6-oxo-1-((2R,3R)-3,5,7-trihydroxychroman-2-yl)-6H-benzo[7]annulen-8-yl)chroman-3-yl 3,4,5-trihydroxybenzoate]	−65.53	11.3 µM	2450 nM	–	–
CC1COC2C3=C(C(=O)C=CC3=O)C3OC(=O)C4CCC5C1CCC25C43 (stereo not drawn) [Example 2, 6-methyl-2a,2a^1,3,4,4a,5,6,7,8a,12b-decahydro-2H-4a^1,5-ethanofuro[4′,3′,2′:4,10]anthra[9,1-bc]oxepine-2,9,12-trione]	−67.12	1.3 µM	220 nM	–	–
O=C1c2c(O)c(Cl)cc3c2[C@@]2(Oc4cc(Cl)c(O)c5c4[C@]3(O2)[C@@H]2O[C@@H]2C5=O)[C@@H]2O[C@H]12 [Example 3, (1aR,1bS,5aS,6aR,6bS,11aS)-3,9-dichloro-4,10-dihydroxy-1a,5a,6a,11a-tetrahydro-5H,11H-1b,6b-epoxyoxireno[2′,3′:2,3]naphtho[1,8-bc]oxireno[2′,3′:2,3]naphtho[1,8-ef]oxepine-5,11-dione]	−80.85	25.3 µM	260 nM	–	–
Cc1c(O)c(O)c(O)c(C=O)c1C=O [Example 4, 3,4,5-trihydroxy-6-methylphthalaldehyde]	−94.09	10.2 µM	3420 nM	–	–
Oc1ccc(N2CCN(c3ncccn3)CC2)cc1 [Example 5, 4-(4-(pyrimidin-2-yl)piperazin-1-yl)phenol]	−46.33	40.5 µM	20600 nM	–	–
COc1cc(O)c2c(c1)oc(=O)c1c3cc(O)c(O)cc3oc21 [Example 7, 1,8,9-trihydroxy-3-methoxy-6H-benzofuro[3,2-c]chromen-6-one]	−74.42	1.24 µM	–	–	–
CC[C@@]1(O)C[C@H](O[C@H]2C[C@H](N(C)C)[C@H](O)[C@H](C)O2)c2c(cc3c(c2O)C(=O)c2c(O)ccc(O)c2C3=O)[C@H]1C(=O)OC [Example 14, methyl (1R,2R,4S)-4-(((2R,4S,5S,6S)-4-(dimethylamino)-5-hydroxy-6-methyltetrahydro-2H-pyran-2-yl)oxy)-2-ethyl-2,5,7,10-tetrahydroxy-6,11-dioxo-1,2,3,4,6,11-hexahydrotetracene-1-carboxylate]	−67.06	0.73 µM	–	–	–
C/C1=C/CC(O)/C=C\C(C)C(O)C(C)/C=C(\C)C(=O)c2c(O)c(C)cc3c2C(=O)C(Cl)=C(NC(=O)/C=C/C=C/C=C/C(C)C(O)CC1=O)C3=O (stereo not drawn) [Example 15, 2-chloro-13,19,23,28-tetrahydroxy-12,16,22,24,26,29-hexamethyl-13,14,19,22,23,24-hexahydro-1H-3,31-methanobenzo[e][1]azacyclononacosine-1,5,15,27,32(4H,12H,18H)-pentaone]	−54.29	4.71 µM	–	–	–
O=c1[nH]c2ccc(S(=O)(=O)Nc3cccc4ccccc34)cc2[nH]1 [Example 37, N-(naphthalen-1-yl)-2-oxo-2,3-dihydro-1H-benzo[d]imidazole-5-sulfonamide]	–	–	–	absence of binding	–
O=c1[nH]c2ccc(S(=O)(=O)Nc3ccc(O)cc3)cc2[nH]1 [Example 38, N-(4-hydroxyphenyl)-2-oxo-2,3-dihydro-1H-benzo[d]imidazole-5-sulfonamide]	–	–	–	absence of binding	–
CC(C)[C@H](NC(=O)[C@H](CCC(N)=O)NC(=O)[C@H](Cc1c[nH]c2ccccc12)NC(=O)[C@H](CCCNC(=N)N)NC(=O)[C@H](CO)NC(=O)[C@H](CC(N)=O)NC(=O)[C@H](C)N)C(=O)N[C@H](C(=O)N[C@@H](CCCNC(=N)N)C(=O)N[C@H](C(=O)O)C(C)(C)C)[C@@H](C)O [NPG35, reference compound] (H-ANSRWQVTR[Tle]-OH)	–	–	–	–	≤ 1000 nM
